Entries after “also recorded” stand apart in the source; their conditions may differ. One block for each molecule: values may come before it.
How the values were obtained:
HMC1.1 (KITV560G) cells = assay: Proliferation assay (MTS cell viability) on HMC1.1 cells; type: cell-based, human
Protocol: FIG. 5: Antibody modulation of oncogenic KIT. (A) HMC1.1 or HMC1.2 cells were incubated in IMDM 1% serum in the presence of anti-KIT antibodies or control antibody as indicated at 5 μg/mL (light grey) or 50 μg/mL (medium grey) or without antibody (dark grey). Cell viability is expressed in % compared to non treated cells. HMC1.1 or HMC1.2 cells were incubated in IMDM 10% serum in the presence of anti-KIT antibodies or control antibody (10 μg/mL) for 1, 2 or 24 hrs. As indicated and analyzed (B) by FACS using 104D2 anti-KIT antibody or (C) by western blot using anti-KIT and phospho-specific anti-KIT antibodies. (D) Three days treatment with anti-KIT antibodies maintained a low level of KIT on both mastocytoma cell lines.
UT-7 were seeded at 10^4 cells/well and treated for 4 days with 2D1, 3G1, H7 or Bot irrelevant antibody at 5 or 50 μg/mL […] in the presence of EPO or CHO-KL supernatant diluted 500 times. HMC1.1 and 1.2 were treated the same but for 7 days and with 1% SVF instead of 10% and without cytokines. Cell viability was estimated with MTS assay (PROMEGA) as recommended by the manufacturer.

[1] = system: HMC1.2 (KIT V560G D816V) cells; assay: Proliferation assay (MTS cell viability) on HMC1.2 cells
[2] = target: T1, KIT surface level on UT-7/EPO cells (wild type KIT) (Homo sapiens, UniProt P10721); assay: Internalization assay: KIT surface level by FACS with 104D2 on UT-7/EPO cells; type: cell-based
T1 construct: endogenous in cells; host or cells: UT-7/EPO human erythroleukemic cells
T1 sequence (P10721 26-976): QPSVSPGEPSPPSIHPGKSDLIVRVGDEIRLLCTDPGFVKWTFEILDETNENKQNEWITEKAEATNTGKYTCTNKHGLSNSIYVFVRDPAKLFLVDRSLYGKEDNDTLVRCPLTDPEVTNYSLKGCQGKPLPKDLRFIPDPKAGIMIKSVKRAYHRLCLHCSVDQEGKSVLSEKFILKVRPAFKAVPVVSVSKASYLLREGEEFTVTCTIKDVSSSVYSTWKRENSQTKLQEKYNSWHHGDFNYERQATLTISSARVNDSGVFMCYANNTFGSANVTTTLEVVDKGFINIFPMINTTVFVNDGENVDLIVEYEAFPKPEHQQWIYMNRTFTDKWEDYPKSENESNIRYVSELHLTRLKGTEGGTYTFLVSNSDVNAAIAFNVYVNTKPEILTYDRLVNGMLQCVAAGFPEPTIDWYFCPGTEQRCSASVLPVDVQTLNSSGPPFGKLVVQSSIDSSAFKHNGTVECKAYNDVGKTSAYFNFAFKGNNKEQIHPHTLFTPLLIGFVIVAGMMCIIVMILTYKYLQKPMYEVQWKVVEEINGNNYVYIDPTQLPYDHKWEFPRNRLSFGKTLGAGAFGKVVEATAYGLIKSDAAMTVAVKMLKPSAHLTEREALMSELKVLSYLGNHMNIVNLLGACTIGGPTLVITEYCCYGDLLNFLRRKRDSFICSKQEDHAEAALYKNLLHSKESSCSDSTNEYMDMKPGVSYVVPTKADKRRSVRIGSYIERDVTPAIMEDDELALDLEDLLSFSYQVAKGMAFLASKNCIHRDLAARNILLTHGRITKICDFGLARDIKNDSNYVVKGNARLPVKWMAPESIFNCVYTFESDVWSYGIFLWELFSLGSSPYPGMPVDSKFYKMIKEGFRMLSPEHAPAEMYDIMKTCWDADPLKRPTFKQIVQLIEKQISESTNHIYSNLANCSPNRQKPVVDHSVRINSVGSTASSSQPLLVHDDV

biotinylated KIT-ECD = target: T2, biotinylated KIT-ECD (Homo sapiens, UniProt P10721); assay: Affinity measurement using yeast display of scFv with biotinylated KIT-ECD; type: binding; conditions: scFv displayed on yeast; for Kd: affinity matured variants, read-out: intrinsic Kd
T2 construct: KIT-ECD, amino acid 26 to 509, P10721 UniProtKB/Swiss-Prot; 6His (C); biotin (label); made in house; host or cells: insect cells (High Five, baculovirus)
T2 sequence (P10721 26-509): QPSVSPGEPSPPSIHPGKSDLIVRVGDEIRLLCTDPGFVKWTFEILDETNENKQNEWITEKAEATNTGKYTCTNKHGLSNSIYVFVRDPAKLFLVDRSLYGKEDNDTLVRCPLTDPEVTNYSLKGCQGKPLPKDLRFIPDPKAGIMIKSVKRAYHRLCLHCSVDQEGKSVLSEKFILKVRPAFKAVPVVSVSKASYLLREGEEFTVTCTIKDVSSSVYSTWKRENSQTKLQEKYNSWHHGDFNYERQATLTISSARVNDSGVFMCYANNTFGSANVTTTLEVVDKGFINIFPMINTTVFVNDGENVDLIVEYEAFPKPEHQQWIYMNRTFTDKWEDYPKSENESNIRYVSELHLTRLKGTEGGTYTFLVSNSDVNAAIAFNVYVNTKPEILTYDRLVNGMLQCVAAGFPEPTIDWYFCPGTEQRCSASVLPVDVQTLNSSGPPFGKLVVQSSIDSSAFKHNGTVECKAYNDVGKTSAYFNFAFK
From the text: Cells were then put on ice, washed with ice cold FACS buffer and bound antigen was detected with Streptavin conjugated to PE.

Molecule: Cc1nc(Nc2ncc(C(=O)Nc3c(C)cccc3Cl)s2)cc(N2CCN(CCO)CC2)n1 [dasatinib, N-(2-chloro-6-methylphenyl)-2-[[6-[4-(2-hydroxyethyl)-1-piperazinyl]-2-methyl-4-pyrimidinyl]amino]-5-thiazole-carboxamide monohydrate]
toxicity of TKI to HMC1.1 cells (HMC1.1 (KITV560G) cells): toxic to HMC1.1 cells
toxicity of TKI to HMC1.2 cells [1]: toxic to HMC1.2 cells

Molecule: Cc1ccc(NC(=O)c2ccc(CN3CCN(C)CC3)cc2)cc1Nc1nccc(-c2cccnc2)n1 [imatinib, 4-[(4-methylpiperazin-1-yl)methyl]-N-(4-methyl-3-{[4-(pyridin-3-yl)pyrimidin-2-yl]amino}phenyl)benzamide]
KIT surface levels, imatinib treatment alone ([2]; UT-7/EPO cells with EPO, Imatinib 1 μM, 4 hrs): decreased KIT surface levels; also recorded: reduced KIT level at the cell surface
effect on SCF-induced KIT surface level decrease ([2]; UT-7/EPO cells, imatinib with SCF): inhibited SCF-induced KIT surface level decrease
toxicity of TKI to HMC1.1 cells (HMC1.1 (KITV560G) cells): toxic to HMC1.1 cells
toxicity of TKI to HMC1.2 cells [1]: resistance of the D816V mutant to imatinib

Results, then the molecule that gave them:

concentration of Ag at which saturation is reached (biotinylated KIT-ECD): 10 nM
Kd (biotinylated KIT-ECD): 1.7 nM
B1: 3G1-A2: affinity matured variant of 3G1, same VH (SEQ ID NO: 9), VL SEQ ID NO: 30 (antibody, V domains shown)
VH: MAQVQLVESWGGVAQPGRSLRLSCAASGFTFSSFAMHWVRQAPGKGLEWVAVTSYDGSNEYYADSVKGRFTISRDNSKNTLYLQMNSLRAEDTAVYYCAKAMVRGVTFGDLDYWGQGTLVTVSS
VL: SSELTQDPAVSVALGQTVRKTCQGDSLKSYYASWYQQKPGQAPVLVIYGENSRPSGIPDRFSGSSSGNTASLTITGAQAEDEADYYCCSRATGGYHRIFGGGTKLTVLG
modifications: Synthetic 3G1 VH chain; Synthetic 3G1-A2 VL chain

concentration of Ag at which saturation is reached (biotinylated KIT-ECD): 10 nM
Kd (biotinylated KIT-ECD): 4.2 nM
B2: 2D1-C7: affinity matured variant of 2D1, same VH (SEQ ID NO: 1), VL SEQ ID NO: 26 (antibody, V domains shown)
VH: MAQVKLQESGGGLVQPGGSLRLSCAASGFTFDSYAMSWVRQAPGKGLEWVSYITSSSSTIYYVDSVKGRFTISRDNAKNSLYLQMNSLRDEDTAVYYCARLRNSEGYWYFDLWGRGTLVTVSS
VL: SQSVLTQDPAVSVALGQTVRITCQGDSLRSYYASWYQQKPGQAPLLVMYGENIRPSGIPDRFSGSTSGNSASLTITGAQAEDEADYYCNSRDSSGNHLNWVFGGGTKLTVLG
modifications: Synthetic 2D1 VH chain; Synthetic 2D1-C7 VL chain

— patent publication US9932410B2, “Human neutralizing anti-kit antibodies and uses thereof” (INSERM (Institut National de la Sante et de la Recherche …, priority 2013, dated 2018)
